Measurements as given in patent US20250009698A1, “NERVONIC ACID-BASED COMPOSITIONS AND METHODS” (REGENTS OF THE UNIVERSITY OF MINNESOTA, priority 2023, published 2025).
“Also recorded” adds a separate entry of the source.

Key:
ALD double knockout mice = assay: In vivo mouse study, four-week NA or EA diet, fatty acids in plasma and tissues; conditions: for C26:0 in tissues, 3% NA group versus 3% EA group: comparison of 3% NA and 3% EA treatment groups
Description: An in vivo ALD double knockout mice model was used to evaluate the effect of NA or EA on various fatty acid concentrations in the tissue of the mice see Example). Mice were fed a diet containing 0.6% NA, 3% NA, or 3% EA for four weeks (FIG. 20). Blood samples taken every week and tissues harvested after four weeks of treatment were analyzed for fatty acid concentration.
Double ALD knockout mice were grown to eight weeks. At eight week the mice were split into four treatment groups. Three of the treatment groups received nervonic acid (NA, 0.6% or 3%) or erucic acid (EA, 3%) through their daily diet. Specifically, mice were fed with rodent chow (TEKLAD Rodent Chow available from Inotiv in West Lafayette, IN) mixed with the desired amount of NA or EA. Food was available continuously and new food was added every other day. Daily food intake was weighed and mouse weighed every week. Blood samples were taken weekly for four weeks. Following four weeks, the mice were sacrificed, and their tissues analyzed for fatty acid content. GCMS was used for lipid fatty acid content analysis and LC-MS/MS was used to analyze Lyso-PC.

[1] = preliminary animal studies; cited from earlier work
[2] = test system: ALD cells (cALD and AMN cells); assay: Basal energy production measured as ATP content in ALD cells; type: cell-based, human
Description: (§1) In vitro and in vivo experiments were done to evaluate the ability of nervonic acid to modulate ALD associated biochemistry in various ALD phenotypes including childhood cerebral ALD (cALD) and adrenomyeloneuropathy (AMN). Nervonic acid (NA) was compared to the erucic acid (EA), the active ingredient in Lorenzo's oil. […] Additionally, the potential of NA and EA to alter the basal energy production measured as ATP content in ALD cells was assessed (Terluk et al., Neurotherapeutics 2022 April; 19(3):1007-1017. doi: 10.1007/s13311-022-01226-7). Following a five-day treatment with NA, cellular ATP content was increased in cALD cells (FIG. 6).

[3] = Pharmacokinetics of NA study, single oral dose; type: in vivo, mouse; conditions: male, ALD gene-knockout (ABCD1-), mouse, in vivo; single oral 10 mg; plasma; NCA
Description: (§2) Pharmacokinetic studies were conducted to determine the key pharmacokinetic parameters of NA in an ALD mouse model and assess alterations in plasma C26:0 levels following single-dose NA administration. The pharmacokinetic parameters of NA were defined for the first time in rodents (FIG. 35-39). […] The concentrations of NA in the brain (FIG. 37) and in the liver (FIG. 38) were determined.
(§3) Pharmacokinetic studies were conducted using 12-week-old male ALD gene-knockout mice (KO; ABCD1-) following a single oral administration of 10 mg of NA. Blood samples were collected from the submandibular vein prior to dosing and at 0.25, 0.5, 1, 2, 6, 18, 24, 30, 48, 72, and 168 hours post-administration. The concentrations of NA in plasma and tissues were analyzed at the Kennedy Krieger Institute using GC/MS. Pharmacokinetic parameters including systemic clearance (CL/F), volumes of distribution (V/F), elimination half-life (ti/2), and the area under the curve (AUC) were estimated using PHOENIX (Certara USA, Radnor, PA) with non-compartmental analysis (NCA).

[4] = test system: ALD gene-knockout mice (KO; ABCD1-); assay: Pharmacokinetics of NA study, single oral dose; type: in vivo, mouse
Description: as §2, §3

[5] = test system: ALD patient-derived fibroblasts; conditions: earlier studies; cited from earlier work
AMN cells = assay: Long chain fatty acid (LCFA) oxidation stress test with UK5099, BPTES, etomoxir; type: cell-based, human; conditions: 20 μM NA, 24 h, with inhibitors UK, BP, ETO alone or combined
Description: A long chain fatty acid (LCFA) oxidation stress test (SEAHORSE XF assay; Agilent Technologies, Inc., Santa Clara, CA) was used to assess how NA affects mitochondrial respiration when various metabolic pathways of mitochondria are inhibited. Specific inhibitors to block glucose, fatty acid or glutamine pathways were used alone or in combination to understand the substrate specific effects of NA. In this assay the mitochondrial stress test (MST) is repeated with one or more inhibitors of glycolysis, the TCA cycle, electron transport, and oxidative phosphorylation pathways are present. Etomoxir (Eto) is used to inhibit carnitine palmitoyl transferase 1a (CPT1a), an enzyme important in the mechanism for beta oxidation (degradation) of long chain fatty acids. UK5099 (UK) is used to inhibit transport of glucose and/or pyruvate by targeting the mitochondrial pyruvate carrier (MPC). BPTES (BP) is used to inhibit glutaminase GLS1, an enzyme that converts glutamine into glutamate, a substrate for further oxidation in the TCA cycle. AMN cells were incubated with one or more of the inhibitors with or without 20 μM NA and run through the mitochondrial stress test. The results are shown in FIG. 17, FIG. 18, and FIG. 19.

AMN cells (GM17819) = assay: Seahorse cell mitochondrial stress test (MST), oxygen consumption rate; type: cell-based, human; conditions: 5, 20, 50 μM NA, 24 hours
Description: Mitochondrial function was assessed using a cell mitochondrial stress test (MST; see Seahorse study in the Example). As depicted in FIG. 8, in this experiment, inhibitors of various electron transport chain components (oligomycin; FCCP/carbonyl cyanide 4-(trifluoromethoxy)phenylhydrazone; rotenone and antimycin A) are sequentially incubated with cells and the oxygen consumption rate (OCR) measured following each incubation to evaluate various individual parameters of respiration. The OCR of cells that were treated with NA was compared with cells not treated with NA. FIG. 13A-13, FIG. 14A-B, FIG. 15A-B, and FIG. 16A-B are plots showing the results of the respiration test.
Mitochondrial function was assessed on AMN cells (GM17819) using the Cell Mito Stress Test (CMST) in an XFe96 Extracellular Flux Analyzer (Agilent Technologies, Inc., Santa Clara, CA). Cells (1.25×10^4 cells/well) were seeded overnight on Cell-Tak coated XFe96 microplate and then treated with NA (5 μM, 20 μM, or 50 μM) for 24 hours. For the CMST measurements, the culture medium was replaced with XF DMEM medium supplemented with glutamine 4 mM, sodium pyruvate 1 mM, and glucose 24.9 mM, pH 7.4 and 37° C. Oxygen consumption rate (OCR) was detected at baseline and after the following injections: 1) oligomycin (3 μM), 2) carbonyl cyanide 4-(trifluoromethoxy)phenylhydrazone/FCCP (2 μM), and 3) rotenone (1 μM) plus antimycin A (1 μM). This protocol allowed the analysis of the following parameters: basal respiration, ATP production, proton leak, maximal respiration, spare respiratory capacity, non-mito respiration, coupling efficiency percent, and spare respiratory capacity percent. OCR data were normalized by the number of cells determined by using CyQUANT NF Cell Proliferation Assay Kit (Thermo Fisher Scientific, Inc., Waltham, MA) and a fluorescence microplate reader. OCR results were generated by SEAHORSE WAVE PRO (Agilent Technologies, Inc., Santa Clara, CA) and analyzed with the SEAHORSE Analytics software (Agilent Technologies, Inc., Santa Clara, CA).

[6] = test system: Human dermal AMN fibroblasts (GM17819); assay: Imaging study of oxidative stress (CELLROX, MITOSOX); type: cell-based; conditions: five days, compared to vehicle and control
Description: A second set of in vitro experiments were conducted to more thoroughly understand the mechanism of action of nervonic acid in the mitochondria of ALD cells. AMN patient derived fibroblasts were treated with various concentrations of NA (5 μM, 20 μM, and 50 μM in ethanol) and evaluated for mitochondrial oxidative stress by evaluating reactive oxygen species (see Example) and mitochondrial respiration (see Example). FIG. 9 and FIG. 11 show images of the NA AMN treated cells stained for reactive oxygen species (green) or mitochondrial superoxide (red) and nuclei (blue; see Imaging Study in Example). FIG. 10 and FIG. 12 show bar graphs quantifying the reactive oxygen species fluorescence of FIG. 9 and the mitochondrial superoxide fluorescence of FIG. 11.
Human dermal fibroblasts (GM17819) were seeded on chamber slides with a density of 12,500 cells per well and incubated at 37° C. At ˜80% confluence, cells were treated with ethanol (vehicle, <0.1%) and NA (5 μM, 20 μM, or 50 μM) for five days. Untreated AMN fibroblasts were considered the control group. […] Cell localization and fluorescence visualization were then completed using a fluorescence microscope (BZ-X810; Keyence, Osaka, Japan). […]

ELOVL1 = target: T1, ELOVL1 (Homo sapiens, UniProt Q9BW60); conditions: earlier studies; cited from earlier work
T1 sequence (Q9BW60 1-279): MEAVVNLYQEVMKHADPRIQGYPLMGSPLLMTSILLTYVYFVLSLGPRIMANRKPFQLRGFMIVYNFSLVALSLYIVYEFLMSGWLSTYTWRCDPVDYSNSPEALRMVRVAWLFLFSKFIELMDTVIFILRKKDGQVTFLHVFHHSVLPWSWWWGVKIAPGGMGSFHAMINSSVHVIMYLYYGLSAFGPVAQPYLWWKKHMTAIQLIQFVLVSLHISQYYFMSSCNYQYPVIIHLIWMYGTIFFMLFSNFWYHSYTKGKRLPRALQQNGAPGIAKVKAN

AMN and cALD cells = assay: Fatty acid levels in ALD cells treated with NA or EA; type: cell-based, human; conditions: 0, 5, 20, 50 μM
Description: as §1

[7] = cited from earlier work

Structure (SMILES): CCCCCCCC/C=C\CCCCCCCCCCCC(=O)O [EA, erucic acid, reference compound]
- C22:1 amount in brain (ALD double knockout mice; 3% EA diet, four weeks): did not show an elevation
- C22:1 (EA) levels in liver, kidney, heart, and adrenal (ALD double knockout mice; compared to control group, 3% EA diet, four weeks): significant elevation
- C26:0 in tissues, 3% NA group versus 3% EA group (ALD double knockout mice): no significant difference; also recorded: comparable
- C22:1 (EA) level in plasma (ALD double knockout mice; only after 4-week treatment with 3% EA): significant increase
- cardiotoxicity [1]: associated with cardiotoxicity
- cellular ATP content (energy production) at 20 μM ([2]; 20 μM, compared to vehicle-treated cells, five-day treatment): did not show a marked increase

Structure (SMILES): CCCCCCCC/C=C\CCCCCCCCCCCCCC(=O)O [NA, Nervonic acid]
- AUC [3]: 2330 µg·h/mL
- Cmax [3]: 32700 ng/mL
- Tmax [3]: 2 h
- half-life [3]: 62.3 h
- CL/F ([4]; single oral 10 mg, plasma, NCA): 8.509 mL/h
- Ke ([4]; single oral 10 mg, plasma, NCA): 0.01113 h⁻¹
- V/F ([4]; single oral 10 mg, plasma, NCA): 764.7 mL
- plasma C26:0 LPC ([4]; single oral dose 10 mg NA): does not significantly affect
- plasma C26:0 levels ([4]; single oral dose 10 mg NA): does not significantly affect
- accumulation of C26:0 [5]: biochemically reverse
- acute response (AMN cells): No significant change
- basal respiration (AMN cells): No significant change
- maximal respiration (AMN cells): No significant change
- plasma C26:0 Lyso-phosphatidylcholine (C26:0 LPC) (ALD double knockout mice; after 4-week treatment, dose-dependent manner): significantly reduced
- C24:1 levels in liver, kidney, heart, and adrenal gland (ALD double knockout mice; compared to control group, NA diet, four weeks): significant elevation
- C26:0 in tissues, 3% NA group versus 3% EA group (ALD double knockout mice): no significant difference; also recorded: comparable
- plasma C26:0 (ALD double knockout mice; diet 0.6% or 3% NA): dose dependent decrease
- NA level in plasma at steady state (ALD double knockout mice; following four-week treatment): approximately 70 pig/mL
- C26:1 levels in plasma (ALD double knockout mice; intake of NA): significant increase
- C26:0 levels in tissues (ALD double knockout mice; liver, kidney, brain, heart, adrenal, four weeks): decrease
- ATP production (AMN cells (GM17819)): increase
- basal respiration (AMN cells (GM17819)): increase
- maximal respiration (AMN cells (GM17819)): increase
- spare respiratory capacity (AMN cells (GM17819)): increase
- mitochondrial superoxide (MITOSOX fluorescence) ([6]; 5 μM or 20 μM): decrease
- reactive oxygen species (CELLROX fluorescence) ([6]; 5 μM, 20 μM, or 50 μM): decrease
- inhibition of ELOVL1 (ELOVL1): competitively inhibit
- amount of C26:0 fatty acid (AMN and cALD cells): dose-dependent effect on decreasing
- solubility in dimethyl sulfoxide ([7]; dimethyl sulfoxide): approximately 20 mg/ml
- solubility in dimethylformamide ([7]; dimethylformamide): approximately 20 mg/ml
- solubility in ethanol ([7]; ethanol): approximately 10 mg/ml
- cellular ATP content ([2]; cALD cells, five-day treatment): increased
- cellular ATP content at other concentrations ([2]; concentrations other than 20 μM, cALD and AMN cells): a trend was observed
